Experimental data reported in patent US20180110796A1, “COMPOSITIONS AND METHODS FOR THE TREATMENT OF HBV INFECTION” (Spring Bank Pharmaceuticals, Inc., priority 2015, published 2018).

Tests used:
Format in all cases: in vivo, woodchuck (Marmota monax)
[1] = system: woodchuck hepatitis virus (WHV); assay: Antiviral efficacy of oral Formula (IIa) in chronic WHV carrier woodchucks (Example 2); conditions: for weeks per approximately 1 log10 decline of serum WHV DNA: 12-week treatment; for average reduction of serum WHV DNA at the end of treatment: week 12, vs T0; for maximum reduction of hepatic WHV DNA RI from pretreatment level / maximum reduction of hepatic WHV RNA from pretreatment level / maximum reduction of hepatic WHV cccDNA from pretreatment level: after 12 weeks; for maximum reduction of serum WHsAg: after 12 weeks of treatment
[2] = Plasma levels by LC-MS after oral Formula (IIa) (Example 2); conditions: 15 and 30 mg/kg oral, approximately 2 hours post-dose
Protocol: Plasma levels of Formula (Ia) were evaluated at pretreatment (T0) and then bi-weekly throughout the study at approximately 2 hours post-dose. Woodchuck plasma was analyzed by LC-MS and quantified using isotopically enriched internal standards.

[3] = system: IFN-α, IFN-β, CXCL10, IL-6, ISG15, OAS1, RIG-I/NOD2 pathway transcripts; assay: Host immune response gene transcripts in blood and liver by real time PCR (Example 2)
Protocol: Immune responses associated with Formula (IIa) treatment were determined by changes in RNA transcript levels of IFN-α, IFN-β, IFN-γ induced protein 10 (IP-10 or CXCL10), interleukin 6 (IL-6), interferon-induced 17 kDa protein (ISG15), and 2′-5′-oligoadenylate synthetase 1 (OAS1) in blood and liver using PCR techniques. Whole blood was collected into PAXgene blood tubes (Qiagen, Redwood City, Calif.) at pretreatment (week-1 and T0), during treatment (weeks 6 and 12), and during follow-up (week 18) and stored at −70° C. until use. Total RNA was isolated with on-column DNase I digestion using the PAXgene Blood miRNA Kit (Qiagen). Total RNA was further isolated from liver biopsy samples collected at pretreatment (week-1), during treatment (weeks 6 and 12), and at the end of the study (week 20) using the RNeasy Mini Kit (Qiagen) with on-column DNase I digestion using the RNase-Free DNase Set (Qiagen). Following reverse transcription of mRNA with the High Capacity cDNA Reverse Transcription Kit (Applied Biosystems) using oligo(dT), complementary (c) DNA samples were amplified on a 7500 Real Time PCR System instrument (Applied Biosystems) using TaqMan Gene Expression Master Mix (Applied Biosystems) and woodchuck-specific primers and probes (Supplementary Table 1). Woodchuck 18S rRNA expression was used to normalize target gene expression. Transcription levels of target genes were calculated as a fold-change relative to pretreatment level at week-1 (liver) or at T0 (blood) using the formula 2^−ΔΔCt. Samples from a subset of woodchucks from the LD and HD groups were analyzed for expression changes of genes involved in the RIG-I/NOD2 pathway induced by Formula (IIa), including RIG-I, NOD2, transmembrane protein 173 (TMEM173 or STING), interferon regulatory factor 3 (IRF3), and IRF7.

[4] = 15 and 30 mg/kg, all treated woodchucks

COC1[C@@H](OP(=O)(OC[C@H]2O[C@@H](n3cnc4c(N)ncnc43)C[C@H]2O)SCOC(=O)OC(C)C)[C@@H](CO)O[C@H]1n1ccc(=O)[nH]c1=O (stereo partly shown) [Formula (IIa)]
seroconversion to anti-WHs antibodies and anti-WHe antibodies ([1]; 15 and 30 mg/kg, 12 weeks): not observed | hepatic expression scores of cytoplasmic WHcAg from pretreatment level [1, 4]: dose-dependent, transient reductions | scores of liver inflammation during the 12-week treatment period [1, 4]: unchanged or even reduced | delay in WHsAg rebound, high dose versus low dose ([1]; high dose 30 mg/kg): 1-7 week | delay in relapse of serum WHV DNA, high dose versus low dose ([1]; high dose 30 mg/kg): 2-4 weeks | time for serum WHV DNA to return to pretreatment level after withdrawal ([1]; high dose 30 mg/kg): 5-7 weeks | time for serum WHsAg to return to pretreatment level after the end of treatment ([1]; high dose 30 mg/kg): 6-8 weeks | weeks per approximately 1 log10 decline of serum WHV DNA ([1]; high dose 30 mg/kg daily oral): ~3 weeks | average reduction of serum WHV DNA at the end of treatment ([1]; high dose 30 mg/kg daily oral): 3.7 log10 | maximum reduction of hepatic WHV DNA RI from pretreatment level ([1]; high dose 30 mg/kg): 38% | maximum reduction of hepatic WHV RNA from pretreatment level ([1]; high dose 30 mg/kg): 45% | maximum reduction of hepatic WHV cccDNA from pretreatment level ([1]; high dose 30 mg/kg): 25% | maximum reduction of serum WHsAg ([1]; high dose 30 mg/kg): 1.6 log10 | time for serum WHV DNA to return to pretreatment level after withdrawal ([1]; low dose 15 mg/kg): 3-5 weeks | time for serum WHsAg to return to pretreatment level after completion of treatment ([1]; low dose 15 mg/kg): 1-5 weeks | weeks per approximately 1 log10 decline of serum WHV DNA ([1]; low dose 15 mg/kg daily oral): ~6 weeks | average reduction of serum WHV DNA at the end of treatment ([1]; low dose 15 mg/kg daily oral): 2.2 log10 | maximum reduction of hepatic WHV DNA RI from pretreatment level ([1]; low dose 15 mg/kg): 19% | maximum reduction of hepatic WHV RNA from pretreatment level ([1]; low dose 15 mg/kg): 22% | maximum reduction of hepatic WHV cccDNA from pretreatment level ([1]; low dose 15 mg/kg): 16% | maximum reduction of serum WHsAg ([1]; low dose 15 mg/kg): 0.5 log10 | plasma exposure following oral administration [2]: dose-dependent | activation of the RIG-I/NOD2 pathway (liver transcript levels of RIG-I, NOD2, TMEM173, IRF3) ([3]; 15 or 30 mg/kg, n=3 each): long-lasting activation | CXCL10 expression in liver ([3]; both dose groups, liver): significantly induced | mRNA expression of type I IFNs (IFN-α, IFN-β) and ISGs (OAS1, ISG15) in blood versus pretreatment ([3]; high dose 30 mg/kg, blood): significant induction | expression of IFN-β, IL-6 and OAS1 in liver versus pretreatment ([3]; high dose group, liver): significantly increased expression | expression of IL-6 and CXCL10 in blood versus pretreatment ([3]; low and high doses, blood): significantly induced | expression of IFN-α in liver versus pretreatment ([3]; low dose group, liver): significantly induced
